According to PubChem BioAssay (NCI):
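Each compound was tested at five concentrations against cells in 96-well plates for 48 hours. GI50 = concentration required for 50% inhibition of growth. TGI is the concentration that stops growth completely.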

Assays:
Assay in all cases: growth of human tumour cells (NCI), 48 h
[1] = test system: OVCAR-8 ovarian
[2] = test system: TK-10 renal
[3] = test system: HCT-15 colon
[4] = test system: OVCAR-5 ovarian
[5] = test system: MOLT-4 leukemia
[6] = test system: UO-31 renal
[7] = test system: SK-MEL-28 melanoma
[8] = test system: CCRF-CEM leukemia
[9] = test system: OVCAR-4 ovarian
[10] = test system: SR leukemia

With `Cc1c2c(nn1-c1ccc(S/N=C3\SCC(=O)CN3c3ccccc3)cc1)-c1ccccc1CC2` the GI50 [1] was > 50 µM, the TGI [1] was > 50 µM and the GI50 [2] was > 50 µM. For the same molecule, the TGI [2] was > 50 µM, the GI50 [3] was 21.2 µM and the TGI [3] was > 50 µM. The GI50 [4] was > 50 µM, the TGI [4] was > 50 µM and the GI50 [5] was 19.6 µM. For the same molecule, the TGI [5] was > 50 µM, the GI50 [6] was 28.4 µM and the TGI [6] was > 50 µM. For the same molecule, the GI50 [7] was 28.5 µM, the TGI [7] was > 50 µM and the GI50 [8] was 28.1 µM. For the same molecule, the TGI [8] was > 50 µM, the GI50 [9] was 37.6 µM and the TGI [9] was > 50 µM. The GI50 [10] was 1.88 µM and the TGI [10] was > 50 µM.
`Cc1cc(Cl)ccc1N1C(=O)C(=O)C(c2nc3ccccc3s2)C(=O)C1=O` was tested, and the TGI [1] was > 100 µM, the TGI [2] was > 100 µM and the TGI [3] was > 100 µM. The TGI [4] was > 100 µM, the TGI [5] was > 100 µM and the TGI [6] was > 100 µM. The TGI [7] was > 100 µM, the TGI [8] was > 100 µM and the TGI [9] was > 100 µM. For the same molecule, the TGI [10] was > 100 µM.
`O=C1NC(=NCCc2ccccc2Cl)S/C1=C\c1ccc2ncccc2c1` was tested, and the GI50 [1] was 8.16 µM, the TGI [1] was > 25 µM and the GI50 [2] was 3.79 µM. The TGI [2] was > 20.1 µM, the GI50 [3] was 1.18 µM and the TGI [3] was > 25 µM. For the same molecule, the GI50 [4] was 12.2 µM, the TGI [4] was > 25 µM and the GI50 [5] was 5.4 µM. For the same molecule, the TGI [5] was 17.2 µM, the GI50 [6] was 5.13 µM and the TGI [6] was > 25 µM. For the same molecule, the GI50 [7] was 10.7 µM, the TGI [7] was > 25 µM and the GI50 [8] was 4.09 µM. For the same molecule, the TGI [8] was > 25 µM, the GI50 [9] was 4.26 µM and the TGI [9] was > 14.9 µM. It also gave a GI50 [10] of 0.622 µM and a TGI [10] of 2.25 µM.
`C[n+]1c2ccccc2c(NC2CCNCC2)c2[nH]c3ccccc3c21` was tested, and the GI50 [1] was 1.42 µM, the TGI [1] was 12.8 µM and the GI50 [2] was 2.33 µM. For the same molecule, the TGI [2] was 8.53 µM, the GI50 [3] was 10.3 µM and the TGI [3] was > 46 µM. For the same molecule, the GI50 [4] was 1.76 µM, the TGI [4] was 17.6 µM and the GI50 [5] was 0.114 µM. It also gave a GI50 [6] of 13.9 µM, a TGI [6] of 43.7 µM and a GI50 [7] of 1.03 µM. The TGI [7] was 2.95 µM, the GI50 [8] was 0.48 µM and the TGI [8] was 3.13 µM. It also gave a GI50 [9] of 0.253 µM, a TGI [9] of 2.57 µM and a GI50 [10] of 1.7 µM. The TGI [10] was > 100 µM.
In the case of `O=C(CC1C(=O)Nc2ccccc2S1=O)Nc1cccc(Cl)c1` (stereo not drawn), the TGI [1] is reported as > 71.9 µM, the TGI [2] is reported as > 100 µM and the TGI [3] is reported as > 100 µM. For the same molecule, the TGI [4] was > 100 µM, the TGI [5] was > 67.2 µM and the TGI [6] was > 89.8 µM. The TGI [7] was > 100 µM, the TGI [8] was > 57.6 µM and the TGI [9] was > 100 µM. The TGI [10] was 22.1 µM.
For `Cc1ccc(/C=C2\CCOC2=O)cc1`, the GI50 [1] was > 100 µM, the TGI [1] was > 100 µM and the GI50 [2] was > 100 µM. For the same molecule, the TGI [2] was > 100 µM, the GI50 [3] was > 100 µM and the TGI [3] was > 100 µM. The GI50 [4] was > 100 µM, the TGI [4] was > 100 µM and the GI50 [5] was > 100 µM. The TGI [5] was > 100 µM, the GI50 [6] was 41.8 µM and the TGI [6] was > 100 µM. The GI50 [7] was > 100 µM, the TGI [7] was > 100 µM and the GI50 [8] was > 100 µM. For the same molecule, the TGI [8] was > 100 µM, the GI50 [9] was > 100 µM and the TGI [9] was > 100 µM. For the same molecule, the GI50 [10] was > 100 µM and the TGI [10] was > 100 µM.
`CCOc1ccc2c(c1)/C(=C\C=C\C1CC(C)C3CC(OCC)CCC3N1CC)CC(C)N2CC` (stereo not drawn) showed a GI50 [1] of 0.61 µM, a TGI [1] of 2.19 µM and a GI50 [2] of 1.5 µM. It also gave a TGI [2] of 2.93 µM, a GI50 [3] of 1.16 µM and a TGI [3] of 2.77 µM. It also gave a GI50 [4] of 1.23 µM, a TGI [4] of 2.64 µM and a GI50 [5] of 1.47 µM. It also gave a TGI [5] of 4.14 µM, a GI50 [6] of 1.59 µM and a TGI [6] of 3.31 µM. It also gave a GI50 [7] of 1.36 µM, a TGI [7] of 2.86 µM and a GI50 [8] of 0.472 µM. It also gave a TGI [8] of 2.71 µM, a GI50 [9] of 0.459 µM and a TGI [9] of 2 µM. For the same molecule, the GI50 [10] was 0.412 µM and the TGI [10] was 2.75 µM.
With `Cc1nc2cc(O)c(O)cc2cc1Oc1ccc(NC(=O)Nc2ccc(Cl)c(Cl)c2)cc1` the GI50 [1] was 5.77 µM, the TGI [1] was > 32.5 µM and the GI50 [2] was 14.2 µM. The TGI [2] was > 32.5 µM, the GI50 [3] was 5.47 µM and the TGI [3] was > 32.5 µM. For the same molecule, the GI50 [4] was 11.6 µM, the TGI [4] was 29.3 µM and the GI50 [5] was 8.87 µM. For the same molecule, the TGI [5] was > 32.5 µM, the GI50 [6] was 6.97 µM and the TGI [6] was 14.9 µM. It also gave a GI50 [7] of 9 µM, a TGI [7] of 30.1 µM and a GI50 [8] of 6.19 µM. The TGI [8] was 21.8 µM, the GI50 [9] was 9.73 µM and the TGI [9] was > 32.5 µM. It also gave a GI50 [10] of 1.56 µM and a TGI [10] of 12.3 µM.
In the case of `COC(=O)c1c(-c2ccccc2)csc1NC(=O)c1c(-c2ccccc2)noc1C`, the GI50 [1] is reported as 0.776 µM, the TGI [1] is reported as > 100 µM and the GI50 [2] is reported as > 100 µM. For the same molecule, the TGI [2] was > 100 µM, the GI50 [3] was 0.0809 µM and the TGI [3] was > 100 µM. The TGI [4] was > 100 µM, the GI50 [5] was 1.22 µM and the TGI [5] was > 100 µM. The GI50 [6] was 8.88 µM, the TGI [6] was > 100 µM and the GI50 [7] was 1.56 µM. The TGI [7] was > 100 µM, the GI50 [8] was 1.77 µM and the TGI [8] was > 100 µM. For the same molecule, the GI50 [9] was 5.38 µM, the TGI [9] was > 100 µM and the GI50 [10] was 0.282 µM. For the same molecule, the TGI [10] was > 100 µM.
`COc1ccc(-n2c(N)c(C(=O)NCCN3CCOCC3)c3nc4ccccc4nc32)cc1OC` was tested, and the GI50 [1] was 6.94 µM, the TGI [1] was > 100 µM and the GI50 [2] was 31.9 µM. The TGI [2] was > 100 µM, the GI50 [3] was 15 µM and the TGI [3] was > 100 µM. For the same molecule, the GI50 [4] was > 100 µM, the TGI [4] was > 100 µM and the GI50 [5] was 2.87 µM. It also gave a TGI [5] of 27.4 µM, a GI50 [6] of 3.53 µM and a TGI [6] of 62.1 µM. For the same molecule, the GI50 [7] was 32.1 µM, the TGI [7] was > 100 µM and the GI50 [8] was 5.15 µM. For the same molecule, the TGI [8] was > 100 µM, the GI50 [9] was 68.5 µM and the TGI [9] was > 100 µM. It also gave a GI50 [10] of 0.63 µM and a TGI [10] of 22.3 µM.
Molecule `O=C(Nc1ccccc1Cl)c1ccc(NC2=C(Cl)C(=O)N(Cc3ccccc3)C2=O)cc1` has a GI50 [1] of 18.7 µM, a TGI [1] of 36.9 µM and a GI50 [2] of 46.7 µM. For the same molecule, the TGI [2] was > 100 µM, the GI50 [3] was 15 µM and the TGI [3] was 29.2 µM. The GI50 [4] was > 100 µM, the TGI [4] was > 100 µM and the GI50 [5] was 19.1 µM. The TGI [5] was 50.8 µM, the GI50 [6] was > 100 µM and the TGI [6] was > 100 µM. The GI50 [7] was 43 µM, the TGI [7] was > 100 µM and the GI50 [8] was > 100 µM. The TGI [8] was > 100 µM, the GI50 [9] was 78.9 µM and the TGI [9] was > 100 µM. It also gave a GI50 [10] of 15.7 µM and a TGI [10] of 41.5 µM.
